Patent publication US20080200531A1, “CDKI pathway inhibitors as inhibitors of tumor cell growth” (priority 2006, published 2008)
Read-outs that look alike come from different tables or passages of the source.

Tests used:
[1] = tested on: p21-responsive genes (IPTG-induced p21); experiment: Affymetrix U133 2.0 Plus microarray analysis of p21-responsive genes in HT1080 p21-9; format: cell-based, human; details: for fold induction at 20 µM: Homo sapiens, HT-1080, 72 h
Method: HT1080 p21-9 cell line, which carries IPTG-inducible CDKI p21, was either untreated, or treated for 72 hrs with 100 μM IPTG (which induces p21), or with CDKI pathway inhibitors SNX9-1 (20 μM, SNX9 family) or SNX14 (80 μM, unrelated to SNX9) alone or in combination with IPTG. RNA was extracted after each treatment and used for hybridization with Affymetrix U133 2.0 Plus microarrays, containing 56,000 probe sets corresponding to essentially all the human genes. The microarray data were analyzed using Gene Spring software (Agilent). […] The first group (p21-induced genes, top panels) represents 1124 probe sets corresponding to genes that were induced at least 2-fold upon treatment with p21-inducing IPTG. The second group (p21-inhibited genes, bottom panels) represents 435 probe sets corresponding to genes that were inhibited at least 4-fold upon IPTG treatment. […] The left panels show the response of the two groups of genes to IPTG (p21 induction) in the absence of SNX9-class compounds, with the first group induced and the second group inhibited by IPTG. The middle panels show the response of the same genes to IPTG in the presence of SNX9-1 or SNX14 (added with or without IPTG). Both the induction and the inhibition of gene expression by IPTG appear much reduced in the presence of SNX9-1 or SNX14, as expected from their activity as CDKI pathway inhibitors.

[2] = Plasma level of SNX9 one hour after IV injection, HPLC analysis; format: in vivo; details: NCr nude, mouse, one hour after IV injection of 70 mg/kg, two mice
Method: In order to determine the ability of SNX9 to remain in the blood of mice at detectable levels, we analyzed its plasma level one hour after IV injection. Two control mice were uninjected, and two mice were injected IV with 70 mg/kg SNX9 (dissolved in PBS). After one hour, the mice were euthanized and the blood collected by cardiac puncture. After plasma was prepared from the whole blood it was frozen and stored at −70° C. The frozen plasma was thawed and 100 μl was cleared of plasma protein by precipitation with 4 volumes of 100% ethanol at −20° C. for one hour. Under these conditions, SNX9 is recovered quantitatively in the ethanol soluble fraction with a minimum of plasma contamination.
The first assay was HPLC analysis. For this assay, the ethanol soluble fraction was dried under vacuum and re-dissolved in 100 μl 30% acetonitrile 0.1% trifluoroacetic acid (TFA). 4 μl of the ethanol extracted SNX9 was applied to a C18 HPLC column and eluted isocratically using a buffer of 30% acetonitrile 0.1% TFA at a flow rate of 0.3 ml/min. The elution of SNX9 was monitored at its absorption maximum wavelength of 280 nm. […]
The second assay was a biological test for cytotoxicity. […] After 72 hours the growth inhibition was measured by Hoechst staining of the cell lysate in each well of the 96 well tissue culture plate, prepared as previously described.

[3] = tested on: p21-induced transcription from the NK4 promoter; experiment: NK4 promoter-firefly luciferase reporter in HT1080 p21-9 cells; format: cell-based, human; details: 20 μM SNX-9
Method: In this experiment, HT1080 p21-9 cells that express firefly luciferase from a CDKI-responsive promoter of cellular NK4 gene were cultured with IPTG for two days, which is sufficient for near-maximal induction of NK4 (Poole et al., supra).

HCT116 colon carcinoma = experiment: 3-day growth inhibition assay (Hoechst 33342), HCT116; format: cell-based; details: Homo sapiens, HCT-116, 72 h, 3 days, read-out: growth inhibition (decrease in cell number relative to untreated cells)
Method: (§1) The assays were carried out in 96-well plates, in triplicates; the plated cell numbers for each cell line were determined in preliminary experiments to assure exponential growth over the 3-day period of the assay. The cell numbers were measured by staining DNA of attached cells with Hoechst 33342, and the results for each dose were expressed as the decrease in cell number relative to untreated cells. For some of the tumor/normal cell line combinations, the assays were repeated using CellTiter-Glo viability assay (Promega), with the same results.

[4] = tested on: normal fibroblasts (WI-38, BJ-EN); experiment: 3-day growth inhibition assay (Hoechst 33342), normal cells; format: cell-based, human; details: 5 μM; 3 days
Method: as §1

[5] = tested on: NFκB p50 and p65 subunits; experiment: TransAM NFκB p65 and p50 Chemi Transcription Factor Assay (oligonucleotide binding); format: cell-based; details: TNFα-induced or basal
From the text: We also tested if these compounds could act as the inhibitors of NFκB, by measuring cellular levels of p50 or p65 subunits binding oligonucleotides containing NFκB consensus binding site, using ACTIVE MOTIF TransAM™ NFκB p65 Chemi and NFκB p50 Chemi Transcription Factor Assay Kits.

[6] = tested on: HMEC primary cultures, MCF-7 and MDA231; experiment: 3-day growth inhibition assay (Hoechst 33342), normal mammary epithelial cells vs breast carcinoma lines; details: 3-day assay; HMEC vs MCF-7 and MDA231
Method: as §1

HT1080 fibrosarcoma = experiment: 3-day growth inhibition assay (Hoechst 33342), HT1080; format: cell-based; details: Homo sapiens, HT-1080, 72 h, 3 days, read-out: growth inhibition (decrease in cell number relative to untreated cells)
Method: as §1

[7] = SNX9-1 20 μM, SNX14 80 μM, 72 hrs

SMILES | fold induction at 20 µM ([1]; read-out: Fold induction by IPTG, CD44, probe 212063_at, SNX14 80 μM, SNX9-1 20 μM, control 1.21) | fold induction at 20 µM ([1]; read-out: Fold induction by IPTG, CLTB, probe 211043_s_at, SNX14 80 μM, SNX9-1 20 μM, control 1.32) | fold induction at 20 µM ([1]; read-out: Fold induction by IPTG, FLJ13111, probe 218148_at, SNX14 80 μM, SNX9-1 20 μM, control 1.27) | fold induction at 20 µM ([1]; read-out: Fold induction by IPTG, KRT8, probe 209008_x_at, SNX14 80 μM, SNX9-1 20 μM, control 1.97) | fold induction at 20 µM ([1]; read-out: Fold induction by IPTG, LGALS3, probe 208949_s_at, SNX14 80 μM, SNX9-1 20 μM, control 3.74) | fold induction at 20 µM ([1]; read-out: Fold induction by IPTG, NK4, probe 203828_s_at, SNX14 80 μM, SNX9-1 20 μM, control 7.22) | fold induction at 20 µM ([1]; read-out: Fold induction by IPTG, SLC22A18, probe 204981_at, SNX14 80 μM, SNX9-1 20 μM, control 2.46) | fold induction at 20 µM ([1]; read-out: Fold induction by IPTG, SPTBN1, probe 212071_s_at, SNX14 80 μM, SNX9-1 20 μM, control 1.24) | fold induction at 20 µM ([1]; read-out: Fold induction by IPTG, SPTBN1, probe 226765_at, SNX14 80 μM, SNX9-1 20 μM, control 1.21) | induction and inhibition of gene expression by IPTG in the presence of compound (1124 p21-induced, 435 p21-inhibited probe sets) [1, 7] | induction by p21 of genes that are markers of cancer intractability [1, 7] | response of p21-induced and p21-inhibited genes to compound in the absence of IPTG ([1]; SNX9-1 20 μM, SNX14 80 μM, 72 hrs, weaker than IPTG) | concentration at 1 h [2] | induction of NK4-luciferase by p21, compound added after two days of IPTG treatment (reversal) [3] | induction of NK4-luciferase by p21, compound added simultaneously with IPTG [3] | inhibition at 5 µM (HCT116 colon carcinoma) | growth inhibition of normal cells [4] | NFκB activity (p50 or p65 binding to NFκB consensus oligonucleotide) [5] | tumor selectivity of growth inhibition, normal vs transformed mammary cells [6] | inhibition at 5 µM (HT1080 fibrosarcoma)
NCCc1c[nH]c2c(Cl)cc(Cl)cc12 [SNX9-1] | 1.03 | 0.95 | 0.98 | 0.81 | 1.33 | 1.6 | 1.34 | 1.24 | 1.09 | much reduced | inhibited their induction | most of p21-induced genes are induced by SNX9-1 and SNX14 and most of p21-inhibited genes are inhibited | – | – | – | – | – | – | – | –
Cc1[nH]c2c(Cl)cccc2c1CCN [SNX9] | – | – | – | – | – | – | – | – | – | – | – | – | ~250 µM | reverses CDKI-induced transcription | decreased the induction of NK4-luciferase by p21 | ~100% | no effect on normal cells | no significant effect | clear tumor selectivity | ~100%
